Experimental data: US12150919B2 (priority 2023, dated 2024)

Legend:
Assay type in all cases: in vivo, white mice of Swiss strain
[1] = tested on: doxorubicin-induced skin ulcers; test: doxorubicin-induced skin ulcers in white mice: ulcer area and macroscopic state
Text: (§1) Research indicators during burn treatment including: (A) macromorphological index, (B) quantification of hydroxyproline concentration in damaged tissue, and (C) micromorphic index; wherein: • (A) macromorphological index: • Injury status at the burn: swelling, heat, redness, edema observed by eye and recorded by digital camera; • Measure the burn area at 7, 14, and 21 days after causing the burn.
Evaluation of the scar healing effect of the composition 100 and composition 200 in experiments. The model was based on previous studies of doxorubicin-induced skin ulcers in white mice of Swiss strain, both breeds, healthy, weight 30-35 g. White mice of both breeds of both breeds were randomly divided into 5 lots, each batch of 10 animals as follows: • Lot 1: Intradermal injection of physiological saline, no applying DMSO/composition 100/composition 200; • Lot 2: Intradermal injection of doxorubicin 1 mg/0.5 ml, to heal the ulcer naturally; • Lot 3: Intradermal injection of doxorubicin 1 mg/0.5 ml, for ulcer progression for 7 days. Then, drop 0.1 ml of DMSO on the ulcerated area, 2 times a day, use within 21 days; • Lot 4: Intradermal injection of doxorubicin 1 mg/0.5 ml, for ulcer progression for 7 days. Then, apply the composition 100 with dose of 0.1 ml/ulcer/time, 2 times/day, used for 21 days; and • Lot 5: Intradermal injection of doxorubicin 1 mg/0.5 ml, for ulcer progression for 7 days. Then, apply the composition 200 with dose of 0.1 ml/ulcer/time, with a frequency of twice daily, and used for 21 days.
(§2) Research indicators during scar healing including: (A) macromorphological index, (B) quantification of hydroxyproline concentration in damaged tissue, and (C) micromorphic index; all was samed as the burn treatment research experimental.

[2] = tested on: doxorubicin-induced skin ulcers; test: hydroxyproline concentration in skin of mice with doxorubicin-induced ulcers; settings: doxorubicin-induced skin ulcer model; at the end of the study (21 days of application)
Text: as §1
(§3) Evaluation of the scar healing effect of the composition 100 and composition 200 in experiments. The model was based on previous studies of doxorubicin-induced skin ulcers in white mice of Swiss strain, both breeds, healthy, weight 30-35 g. White mice of both breeds of both breeds were randomly divided into 5 lots, each batch of 10 animals as follows: • Lot 1: Intradermal injection of physiological saline, no applying DMSO/composition 100/composition 200; • Lot 2: Intradermal injection of doxorubicin 1 mg/0.5 ml, to heal the ulcer naturally; • Lot 3: Intradermal injection of doxorubicin 1 mg/0.5 ml, for ulcer progression for 7 days. […]
as §2

[3] = tested on: doxorubicin-induced skin ulcers; test: micromorphic index of the skin at the ulcer; settings: mice
Text: as §1, §3, §2

C[S+](C)[O-] [DMSO, dimethyl sulfoxide]
Area of skin ulcers After 7 days (x ± SD) ([1]; 0.1 ml on ulcer 2 times a day, after 7 days): 50.13 ± 12.55 mm^2
Area of skin ulcers After 14 days Median (quartile) ([1]; 0.1 ml on ulcer 2 times a day, after 14 days, median): 7.13 mm^2
Area of skin ulcers After 21 days Median (quartile) ([1]; 0.1 ml on ulcer 2 times a day, after 21 days, median): 0 mm^2
macroscopic state of the ulcerated skin area ([1]; at the end of the study): significantly reduced and almost completely healed skin ulcers
Area of skin ulcers Before applied (x ± SD) ([1]; before applied (baseline)): 75.71 ± 14.02 mm^2
Hydroxyproline concentrations in mouse skin (x ± SD) [2]: 15.04 ± 2.35 mg/g skin
micromorphic images of the skin at the ulcer [3]: the skin has regenerated to form the epidermis, no formation of skin-dependent glands, less blood vessels
